How the values were obtained:
patients = details: double blind test; cited from earlier work
[1] = test system: trinitrobenzenesulfonic acid (TNBS)-induced rat colitis models; test: Effect on trinitrobenzenesulfonic acid (TNBS)-induced rat colitis model; assay type: in vivo, rat (male Wister); details: for Wet weight of large intestine: conagenin 50 mg/kg i.v., salazosulfapyridine 300 mg/kg p.o., daily, untreated 1.571 ± 0.161, saline 1.723 ± 0.167; for Stage of lesion: number of rats that reached a subacute stage: saline group 4 rats; for Depth of invasion of the ulcer (lamina propria mucosae and submucosal tissue): saline group medium; for Percent change in wet weight against untreated group: untreated 100, TNBS and saline 110
Description: Morbid models were prepared by starving male Wister rats (aged 6 weeks; 7 rats per group) for 48 hours, inserting a catheter by 8 cm through the anus of each of the rats under anesthesia with pentobarbital to inject a solution (0.25 ml) with 2,4,6-trinitrobenzenesulfonic acid dissolved in 50% ethanol in a proportion of 80 mg/ml, stopping the anus for about 10 minutes and then allowing it to stand.
Conagenin was intravenously administered to the rats in a dose of 50 mg/kg. Salazosulfapyridine was orally administered as a control agent in a dose of 300 mg/kg. The administration of these test agents was carried out every day from the day before the administration of 2,4,6-trinitrobenzenesulfonic acid to the fourth day after the administration. The rat models were slaughtered at the fifth day after the administration to determine a change in the wet weight of their recta (8 cm) and make a judgment on the basis of the pathological findings thereof.

[2] = Single administration (acute) toxicity test on rats; assay type: in vivo; details: in vivo, rat
Description: (§1) Conagenin (500 mg/kg) was singly administered intravenously, intraperitoneally, subcutaneously or orally to mice and rats to investigate its toxicity.

Rat = test: as above; assay type: in vivo
Description: as §1

rats = test: 3-month repeated administration toxicity test on rats; assay type: in vivo, rat (male Wister); details: 3 months
Description: Conagenin (100 mg/kg) was intraperitoneally administered repeatedly for 3 months to male Wister rats (aged 6 weeks; 3 rats per group) to evaluate its toxicity using a group dosed with physiological saline as a control. Tests were made for general symptoms, urinalysis, blood test, blood biochemical test, autopsy, organ weight and pathological test.
The judgment of the test items was conducted in accordance with "Guideline of Toxicity Testing Methods".

[3] = Single administration toxicity test on mice; assay type: in vivo, mouse; details: in vivo; mouse, intravenous
Description: as §1

Mouse = test: Single administration toxicity test on mice; assay type: in vivo
Description: as §1

[4] = test system: acetic acid-induced rat ulcer models; test: Effect on acetic acid-induced rat ulcer model; assay type: in vivo, rat (male Donryu:CRJ); details: 50 mg/kg i.v.
Description: Morbid models were prepared by starving male Donryu:CRJ rats (aged 6 weeks; 9 rats per group) for 24 hours, incising each of their abdomens under etherization to ligate its colon, injecting a 10% aqueous solution (2 ml) of acetic acid into the digestive tract lumen thereof by means of a syringe equipped with a 25 G needle, further injecting air (3 ml) to discharge the acetic acid solution, and then suturing and closing the operated part. Conagenin was intravenously administered to the rats in a dose of 50 mg/kg 24 hours before the preparation of the models and right after the operation. After 24 hours, the rat models were slaughtered to take out their colons and recta. These organs were incised by 10 cm above from the anus to remove their contents. Thereafter, the weight of the organs was measured, and moreover the degree of mucosal disorder was visually observed. The degree of the tissue damage was evaluated using the grades "light", "medium" and "serious".

[5] = pathological findings of colon, 7 rats per group
[6] = 100 mg/kg i.p., compared with saline control
[7] = 24 h before and right after operation, 9 rats per group

**Q.** With `Nc1ccc(O)c(C(=O)O)c1` [mesalazine] as the molecule, how does the Generalized amelioration rate (patients) read?
**A.** The Generalized amelioration rate was 68.8%.

**Q.** And the “Incidence rate of the side effect” value (patients)?
**A.** The value was 11.5%.

**Q.** Which “Inflammatory change (in words)” value [1] does the source give for `C[C@@H]([C@@H](C)O)[C@@H](O)C(=O)N[C@@](C)(CO)C(=O)O` [Conagenin, (2S)N-[(2R,3S,4R)2,4-dihydroxy-3-methyl-pentanoyl]-2-methylserine] here?
**A.** Its value is “exactly the same good result”.

**Q.** What about the “Therapeutic effect compared with salazosulfapyridine” value ([1]; conagenin 50 mg/kg i.v. vs salazosulfapyridine 300 mg/kg p.o.) of the same molecule?
**A.** The value was “marked therapeutic effect”.

**Q.** What about the “Wet weight of large intestine” value [1] of the same molecule?
**A.** Its value is 1.572 ± 0.099 g.

**Q.** And the “Increase in wet weight of the large intestine (in words)” value ([1]; control (saline) 10%)?
**A.** The value was “No increase was observed”.

**Q.** And the “Depth of invasion on lamina propria mucosae: number of animals, light” value [1, 5]?
**A.** Its value is 2.

**Q.** What about the “Depth of invasion on lamina propria mucosae: number of animals, no marked change” value [1, 5] of the same molecule?
**A.** The value was 5.

**Q.** And the “Depth of invasion on submucosal tissue: number of animals, no marked change” value [1, 5]?
**A.** Its value is 7.

**Q.** And the “Depth of invasion on tunica muscularis: number of animals, no marked change” value [1, 5]?
**A.** The value was 7.

**Q.** What about the “Findings of ulceration: number of animals, light” value [1, 5] of the same molecule?
**A.** The value was 2.

**Q.** What about the “Findings of ulceration: number of animals, no marked change” value [1, 5] of the same molecule?
**A.** Its value is 5.

**Q.** And the “Inflammatory change: number of animals, light” value [1, 5]?
**A.** Its value is 1.

**Q.** What about the “Inflammatory change: number of animals, no marked change” value [1, 5] of the same molecule?
**A.** Its value is 6.

**Q.** And the “Stage of lesion: number of rats that reached a subacute stage” value [1]?
**A.** The value was 2 rats.

**Q.** And the “Depth of invasion of the ulcer (lamina propria mucosae and submucosal tissue)” value [1]?
**A.** The value was “light”.

**Q.** What about the “Percent change in wet weight against untreated group” value [1] of the same molecule?
**A.** Its value is 100%.

**Q.** What about the LD50 ([2]; ip, intraperitoneal) of the same molecule?
**A.** Its LD50 is over 500 mg/kg.

**Q.** And the LD50 ([2]; sc, subcutaneous)?
**A.** Its LD50 is over 500 mg/kg.

**Q.** And the LD50 ([2]; intravenous)?
**A.** Its LD50 is over 500 mg/kg.

**Q.** And the LD50 ([2]; oral)?
**A.** The LD50 was over 500 mg/kg.

**Q.** What about the LD50 ([2]; acute toxicity, rats, oral, subcutaneous, intraperitoneal and intravenous) of the same molecule?
**A.** Its LD50 is at least 500 mg/kg.

**Q.** What about the “Abnormal finding of general symptoms” value (Rat; rat, in vivo, 500 mg/kg) of the same molecule?
**A.** The value was “no abnormal finding of general symptoms”.

**Q.** And the Death (Rat; rats, single 500 mg/kg)?
**A.** The Death was “No death was observed”.

**Q.** And the Death (rats; 100 mg/kg i.p.)?
**A.** The Death was “None”.

**Q.** And the “All items tested (general symptoms, urinalysis, blood test, blood biochemical test, autopsy, organ weight, pathological test)” value (rats; [6])?
**A.** The value was “no significant change was observed”.

**Q.** What about the Blood biochemical test (rats; [6]) of the same molecule?
**A.** Its Blood biochemical test is “No marked change”.

**Q.** And the General symptoms (rats; [6])?
**A.** Its General symptoms is “No marked change”.

**Q.** And the Hematological test (rats; [6])?
**A.** The Hematological test was “No marked change”.

**Q.** What about the Pathological test (rats; [6]) of the same molecule?
**A.** The Pathological test was “No marked change”.

**Q.** What about the Urinalysis (rats; [6]) of the same molecule?
**A.** The Urinalysis was “No marked change”.

**Q.** What about the Development of toxicity (rats; efficacious dose of 100 mg/kg, rats) of the same molecule?
**A.** The Development of toxicity was “no development of toxicity was observed”.

**Q.** And the LD50 [3]?
**A.** Its LD50 is over 500 mg/kg.

**Q.** And the Death (Mouse; mice, single 500 mg/kg)?
**A.** Its Death is “No death was observed”.

**Q.** And the “Abnormal finding of general symptoms” value (Mouse; mouse, in vivo, 500 mg/kg)?
**A.** The value was “no abnormal finding of general symptoms”.

**Q.** And the “Number of animals, grade of inflammation Light (1)” value [4, 7]?
**A.** Its value is 5.

**Q.** And the “Number of animals, grade of inflammation Medium (2)” value [4, 7]?
**A.** Its value is 3.

**Q.** What about the “Number of animals, grade of inflammation Serious (3)” value [4, 7] of the same molecule?
**A.** The value was 1.

**Q.** What about the “Grade of inflammation, mean ± SD” value ([4]; control (physiological saline) 2.38 ± 0.67) of the same molecule?
**A.** Its value is 1.50 ± 0.73.

**Q.** And the “Suppressing effect on the inflammatory ulcer compared with the control group” value ([4]; in words)?
**A.** The value was “high suppressing effect”.

**Q.** Which “Wet weight of large intestine” value [1] does the source give for `O=C(O)c1cc(/N=N/c2ccc(S(=O)(=O)Nc3ccccn3)cc2)ccc1O` [salazosulfapyridine] here?
**A.** The value was 1.641 ± 0.140 g.

**Q.** And the “Increase in wet weight of the large intestine” value ([1]; control (saline) 10%)?
**A.** Its value is 4%.

**Q.** And the “Depth of invasion on lamina propria mucosae: number of animals, light” value [1, 5]?
**A.** The value was 2.

**Q.** What about the “Depth of invasion on lamina propria mucosae: number of animals, medium” value [1, 5] of the same molecule?
**A.** Its value is 2.

**Q.** What about the “Depth of invasion on lamina propria mucosae: number of animals, no marked change” value [1, 5] of the same molecule?
**A.** Its value is 3.

**Q.** What about the “Depth of invasion on submucosal tissue: number of animals, light” value [1, 5] of the same molecule?
**A.** The value was 2.

**Q.** What about the “Depth of invasion on submucosal tissue: number of animals, no marked change” value [1, 5] of the same molecule?
**A.** The value was 5.

**Q.** And the “Depth of invasion on tunica muscularis: number of animals, no marked change” value [1, 5]?
**A.** Its value is 7.

**Q.** What about the “Findings of ulceration: number of animals, light” value [1, 5] of the same molecule?
**A.** The value was 2.

**Q.** And the “Findings of ulceration: number of animals, medium” value [1, 5]?
**A.** Its value is 2.

**Q.** And the “Findings of ulceration: number of animals, no marked change” value [1, 5]?
**A.** Its value is 3.

**Q.** What about the “Inflammatory change: number of animals, light” value [1, 5] of the same molecule?
**A.** Its value is 2.

**Q.** What about the “Inflammatory change: number of animals, medium” value [1, 5] of the same molecule?
**A.** The value was 1.

**Q.** What about the “Inflammatory change: number of animals, no marked change” value [1, 5] of the same molecule?
**A.** The value was 4.

**Q.** And the “Stage of lesion: number of rats that reached a subacute stage” value [1]?
**A.** The value was 4 rats.

**Q.** And the “Depth of invasion of the ulcer (lamina propria mucosae and submucosal tissue)” value [1]?
**A.** The value was “medium”.

**Q.** What about the “Percent change in wet weight against untreated group” value [1] of the same molecule?
**A.** Its value is 104%.

**Q.** What about the Generalized amelioration rate (patients) of the same molecule?
**A.** Its Generalized amelioration rate is 63.5%.

**Q.** And the “Incidence rate of the side effect” value (patients)?
**A.** Its value is 28.1%.
